Assay results taken from US20240252488A1 (KOREA RESEARCH INSTITUTE OF CHEMICAL TECHNOLOGY, priority 2020, published 2024).

Tests used:
MLKL [1] = target: T1, MLKL (Homo sapiens, UniProt Q8NB16); assay: MLKL degradation assay in HepG2 cell line (western blot); type: cell-based; design: endogenous in cells; host or cells: HepG2 or HaCaT; settings: cell line not given; for Degradation assay (Degradation %) 1 μM: compound 1 μM; for Degradation assay (Degradation %) 10 μM: compound 10 μM
T1 sequence (Q8NB16 1-471): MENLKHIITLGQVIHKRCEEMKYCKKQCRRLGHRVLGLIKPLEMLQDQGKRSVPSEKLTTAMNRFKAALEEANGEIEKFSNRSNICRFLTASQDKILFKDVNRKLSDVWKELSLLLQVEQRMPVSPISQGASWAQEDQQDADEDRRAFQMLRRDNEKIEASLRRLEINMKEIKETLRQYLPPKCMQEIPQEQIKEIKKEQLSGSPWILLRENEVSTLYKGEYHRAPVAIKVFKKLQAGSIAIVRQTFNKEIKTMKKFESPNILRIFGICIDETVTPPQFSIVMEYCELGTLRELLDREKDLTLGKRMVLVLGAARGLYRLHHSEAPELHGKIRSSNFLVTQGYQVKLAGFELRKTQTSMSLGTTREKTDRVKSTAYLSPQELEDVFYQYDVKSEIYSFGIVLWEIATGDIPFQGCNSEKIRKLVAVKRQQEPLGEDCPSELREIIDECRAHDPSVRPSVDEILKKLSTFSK
Outline: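 Cells seeded, next day medium swapped for compound-containing medium (final 1 or 10 μM) and incubated 20-24 h at 37 °C. Lysates in RIPA with protease/phosphatase inhibitors were protein-matched by BCA, run on SDS-PAGE and immunoblotted for MLKL.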

MLKL [2] = target: T1, MLKL; assay: Measurement of binding affinity with MLKL receptor (competitive binding assay, Kd); design: made in house; host or cells: HEK 293 cell line (T7 phage in E. coli BL21-derived host is also described)
Outline: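 qPCR of MLKL eluted from liganded beads served as the read-out, from which Kd was derived. The protein was made in HEK 293 cells with a DNA tag, and test compounds competed with the bead-bound ligand at 0.9% final DMSO.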

FADD−/− Jurkat cells = assay: Necroptosis inhibition assay, TNF-α-induced necroptosis (CellTiter-Glo 2.0); type: cell-based, human; settings: TNF-α 15 ng/mL; for Necroptosis inhibition assay (Rescue %) 1 μM: compound 1 μM; for Necroptosis inhibition assay (Rescue %) 10 μM: compound 10 μM
Outline: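 Luminescent ATP measurement gave viability, from which cytotoxicity and necroptosis inhibition rate were derived. Before that, cells (5.0×10^5 cells/mL) saw compound at 0.1, 1 or 10 μM final for 30 minutes at room temperature, then TNF-α (15 ng/mL final) for 20 to 24 hours at 37° C.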

Compound | Degradation assay (Degradation %) 1 μM (MLKL [1]) [%] | Degradation assay (Degradation %) 10 μM (MLKL [1]) [%] | Kd (MLKL [2]) [nM] | Necroptosis inhibition assay (Rescue %) 1 μM (FADD−/− Jurkat cells) [%] | Necroptosis inhibition assay (Rescue %) 10 μM (FADD−/− Jurkat cells) [%] | Necroptosis inhibition assay (Rescue %) 1 μM (FADD−/− Jurkat cells; FADD−/− Jurkat cells) [%] | Necroptosis inhibition assay (Rescue %) 10 μM (FADD−/− Jurkat cells; FADD−/− Jurkat cells) [%] | Necroptosis inhibition assay (Rescue %) 1.1 μM (FADD−/− Jurkat cells; compound 1.1 µM)
Nc1ncc(-c2cnn(C3CCN(CCOC4CCN(c5ccc6c(c5)C(=O)N(C5CCC(=O)NC5=O)C6=O)CC4)CC3)c2)nc1C(=O)OC(C(=O)Nc1ccc(F)cc1)c1ccccc1 (centres unmarked) [TDH-254, 2-((4-fluorophenyl)amino)-2-oxo-1-phenylethyl 3-amino-6-(1-(1-(2-((1-(2-(2,6-dioxopiperidin-3-yl)-1,3-dioxoisoindolin-5-yl)piperidin-4-yl)oxy)ethyl)piperidin-4-yl)-1H-pyrazol-4-yl)pyrazine-2-carboxylate] | 19.16 | 25.97 | 8 | 24.05 | 15.37 |  |  | 
Nc1ncc(-c2cnn(C3CCN(CCC4CCN(C(=O)CCc5ccc6c(c5)C(=O)N(C5CCC(=O)NC5=O)C6=O)CC4)CC3)c2)nc1C(=O)O[C@@H](C(=O)Nc1ccc(F)cc1)c1ccccc1 (stereo partly drawn) [TDH-377, (R)-2-((4-fluorophenyl)amino)-2-oxo-1-phenylethyl 3-amino-6-(1-(1-(2-(1-(3-(2-(2,6-dioxopiperidin-3-yl)-1,3-dioxoisoindolin-5-yl)propanoyl)piperidin-4-yl)ethyl)piperidin-4-yl)-1H-pyrazol-4-yl)pyrazine-2-carboxylate] | 89.95 | 82.82 | 0.61 | 62.50 | 27.37 |  |  | 
Nc1ncc(-c2cnn(C3CCN(C(=O)COCCOCCNc4ccc5c(c4)C(=O)N(C4CCC(=O)NC4=O)C5=O)CC3)c2)nc1C(=O)O[C@@H](C(=O)Nc1ccc(F)cc1)c1ccccc1 (stereo partly drawn) [TDH-105, (R)-2-((4-fluorophenyl)amino)-2-oxo-1-phenylethyl 3-amino-6-(1-(1-(2-(2-(2-((2-(2,6-dioxopiperidin-3-yl)-1,3-dioxoisoindolin-5-yl)amino)ethoxy)ethoxy)acetyl)piperidin-4-yl)-1H-pyrazol-4-yl)pyrazine-2-carboxylate] | 43.02 | 40.8 | 6.1 | 27.07 | 15.46 |  |  | 
Nc1ncc(-c2cnn(C3CCN(CC4CN(C(=O)COc5cccc6c5C(=O)N(C5CCC(=O)NC5=O)C6=O)CCO4)CC3)c2)nc1C(=O)OC(C(=O)Nc1ccc(F)cc1)c1ccccc1 (centres unmarked) [TDH-308, 2-((4-fluorophenyl)amino)-2-oxo-1-phenylethyl 3-amino-6-(1-(1-((4-(2-((2-(2,6-dioxopiperidin-3-yl)-1,3-dioxoisoindolin-4-yl)oxy)acetyl)morpholin-2-yl)methyl)piperidin-4-yl)-1H-pyrazol-4-yl)pyrazine-2-carboxylate] | 55.12 | 69.64 | 1.7 | 76.28 | 56.73 |  |  | 
Nc1ncc(-c2cnn(C3CCN(CC4CCN(C(=O)CNc5ccc6c(c5)C(=O)N(C5CCC(=O)NC5=O)C6=O)CC4)CC3)c2)nc1C(=O)N[C@@H](C(=O)Nc1ccc(F)cc1)c1ccccc1 (stereo partly drawn) [TDH-207, 3-amino-6-(1-(1-((1-((2-(2,6-dioxopiperidin-3-yl)-1,3-dioxoisoindolin-5-yl)glycyl)piperidin-4-yl)methyl)piperidin-4-yl)-1H-pyrazol-4-yl)-N-((R)-2-((4-fluorophenyl)amino)-2-oxo-1-phenylethyl)pyrazine-2-carboxamide] | 17.98 | 24.18 | 210 | 28.69 | 32.45 |  |  | 
Nc1ncc(-c2cnn(C3CCN(C(=O)CC4CCN(C(=O)COc5ccc6c(c5)C(=O)N(C5CCC(=O)NC5=O)C6=O)CC4)CC3)c2)nc1C(=O)O[C@@H](C(=O)Nc1ccc(F)cc1)c1ccccc1 (stereo partly drawn) [TDH-338, (R)-2-((4-fluorophenyl)amino)-2-oxo-1-phenylethyl 3-amino-6-(1-(1-(2-(1-(2-((2-(2,6-dioxopiperidin-3-yl)-1,3-dioxoisoindolin-5-yl)oxy)acetyl)piperidin-4-yl)acetyl)piperidin-4-yl)-1H-pyrazol-4-yl)pyrazine-2-carboxylate] | 59.83 | 79.19 | 5.5 | 50.8 | 50.29 |  |  | 
Nc1ncc(-c2cnn(C3CCN(CC4CCN(C(=O)CNc5cccc6c5C(=O)N(C5CCC(=O)NC5=O)C6=O)CC4)CC3)c2)nc1C(=O)O[C@@H](C(=O)Nc1ccc(F)cc1)c1ccccc1 (stereo partly drawn) [TDH-136, (R)-2-((4-fluorophenyl)amino)-2-oxo-1-phenylethyl 3-amino-6-(1-(1-((1-((2-(2,6-dioxopiperidin-3-yl)-1,3-dioxoisoindolin-4-yl)glycyl)piperidin-4-yl)methyl)piperidin-4-yl)-1H-pyrazol-4-yl)pyrazine-2-carboxylate] | 50.37 | 48.83 | 4.6 | 48.59 | 40.66 |  |  | 
Nc1ncc(-c2cnn(C3CCN(CCCN4CCN(CC5CCN(C(=O)COc6ccc7c(c6)C(=O)N(C6CCC(=O)NC6=O)C7=O)CC5)CC4)CC3)c2)nc1C(=O)O[C@@H](C(=O)Nc1ccc(F)cc1)c1ccccc1 (stereo partly drawn) [TDH-440, (R)-2-((4-fluorophenyl)amino)-2-oxo-1-phenylethyl 3-amino-6-(1-(1-(3-(4-((1-(2-((2-(2,6-dioxopiperidin-3-yl)-1,3-dioxoisoindolin-5-yl)oxy)acetyl)piperidin-4-yl)methyl)piperazin-1-yl)propyl)piperidin-4-yl)-1H-pyrazol-4-yl)pyrazine-2-carboxylate] | 81.51 | 84.75 | 0.51 |  |  | 65.67 | 24.42 | 
Nc1ncc(-c2cnn(C3CCN(CCCN4CCN(C(=O)CNc5ccc6c(c5)C(=O)N(C5CCC(=O)NC5=O)C6=O)CC4)CC3)c2)nc1C(=O)O[C@@H](C(=O)Nc1ccc(F)cc1)c1ccccc1 (stereo partly drawn) [TDH-357, (R)-2-((4-fluorophenyl)amino)-2-oxo-1-phenylethyl 3-amino-6-(1-(1-(3-(4-((2-(2,6-dioxopiperidin-3-yl)-1,3-dioxoisoindolin-5-yl)glycyl)piperazin-1-yl)propyl)piperidin-4-yl)-1H-pyrazol-4-yl)pyrazine-2-carboxylate] | 84.79 | 76.36 | 0.55 |  |  |  |  | 82.13 (1.1µM) %
Nc1ncc(-c2cnn(C3CCN(CC4CCN(CC(=O)N5CCC(Nc6cccc7c6C(=O)N(C6CCC(=O)NC6=O)C7=O)CC5)CC4)CC3)c2)nc1C(=O)OC(C(=O)Nc1ccc(F)cc1)c1ccccc1 (centres unmarked) [TDH-238, 2-((4-fluorophenyl)amino)-2-oxo-1-phenylethyl 3-amino-6-(1-(1-((1-(2-(4-((2-(2,6-dioxopiperidin-3-yl)-1,3-dioxoisoindolin-4-yl)amino)piperidin-1-yl)-2-oxoethyl)piperidin-4-yl)methyl)piperidin-4-yl)-1H-pyrazol-4-yl)pyrazine-2-carboxylate] | 30.48 | 18.31 | 1.7 | 43.63 | 31.99 |  |  | 
Cc1ncsc1-c1ccc(CNC(=O)[C@H]2C[C@H](O)CN2C(=O)[C@@H](NC(=O)CN2CCC(CCN3CCC(n4cc(-c5cnc(N)c(C(=O)OC(C(=O)Nc6ccc(F)cc6)c6ccccc6)n5)cn4)CC3)CC2)C(C)(C)C)cc1 (stereo partly drawn) [TDH-312, 2-((4-fluorophenyl)amino)-2-oxo-1-phenylethyl 3-amino-6-(1-(1-(2-(1-(2-(((S)-1-((2R,4S)-4-hydroxy-2-((4-(4-methylthiazol-5-yl)benzyl)carbamoyl)pyrrolidin-1-yl)-3,3-dimethyl-1-oxobutan-2-yl)amino)-2-oxoethyl)piperidin-4-yl)ethyl)piperidin-4-yl)-1H-pyrazol-4-yl)pyrazine-2-carboxylate] | 59.87 | 40.64 | 6.9 | 75.61 |  |  |  | 
